Experimental findings from PubChem BioAssay AID1817 (Sanford-Burnham Center for Chemical Genomics, 2009) are described below.

Activity calls are given as the source filed them.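 Rule for the calls: active = displacement of at least 50% at 20 µM, with a fluorescence ratio check between 0.3 and a set limit; inactive = the rest.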 A value given as a limit tells only on which side of the number the result lay.

What is called IC50 is the concentration at which inhibition is half-maximal.

In the assay the target is E3 ubiquitin-protein ligase SIAH1 (Homo sapiens) (UniProt Q8IUQ4). In words: Siah-1 peptide-binding antagonists, primary screen, biochemical, fluorescence polarization, rhodamine-plectin, uHTS (AID 1817). The conditions noted are these: Siah-1 / rhodamine-plectin peptide fluorescence polarization. (In general: In fluorescence polarisation assays a small probe gives low polarisation when free and higher when bound to something large.)
Chain of E3 ubiquitin-protein ligase SIAH1 (Homo sapiens) (Q8IUQ4 whole entry, looked up): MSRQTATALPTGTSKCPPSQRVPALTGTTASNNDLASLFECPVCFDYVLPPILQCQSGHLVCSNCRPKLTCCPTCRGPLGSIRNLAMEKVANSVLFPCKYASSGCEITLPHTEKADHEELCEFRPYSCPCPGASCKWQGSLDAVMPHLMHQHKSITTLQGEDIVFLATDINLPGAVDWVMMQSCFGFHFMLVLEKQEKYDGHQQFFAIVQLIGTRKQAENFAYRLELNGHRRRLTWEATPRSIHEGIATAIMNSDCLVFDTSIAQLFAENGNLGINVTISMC
Regarding `O=C(CCN1CCN(Cc2ccccc2)CC1)Nc1cccc(Cl)c1`, the IC50 is > 200 µM (inactive). To `O=C(Nc1cccc(Oc2ccc(C(=O)O)c(C(=O)O)c2)c1)c1ccc(-c2ccccc2)cc1` belongs 8.53 µM; to `CCCCn1c(NS(=O)(=O)c2ccc(C)cc2)c(S(=O)(=O)c2ccccc2)c2nc3ccccc3nc21`, > 200 µM (inactive); to `CN(C)CCOC(=O)CCc1ccccc1`, > 200 µM (inactive).

On to `C=CCn1c(NS(=O)(=O)c2ccccc2)c(S(=O)(=O)c2ccc(C)cc2)c2nc3ccccc3nc21`, for which the IC50 was > 200 µM (inactive). To `CCCCn1c(NS(=O)(=O)c2ccccc2)c(S(=O)(=O)c2ccc(C)cc2)c2nc3ccccc3nc21` belongs > 200 µM (inactive); to `Cc1cc2cc(CNC(=O)c3ccc(S(=O)(=O)N4CCCCC4)cc3)ccc2n1C`, > 200 µM (inactive); to `O=C(Cn1cnc2scc(-c3ccccc3)c2c1=O)NCc1ccco1`, > 200 µM (inactive). To `Nc1ccc(S(=O)(=O)Nc2ccc(S(N)(=O)=O)cc2)cc1` belongs > 200 µM (inactive). To `O=C(Nc1cc([N+](=O)[O-])ccc1N1CCOCC1)c1cccs1` belongs > 200 µM (inactive); to `CC1CCCCC1NC(=O)CCS(=O)(=O)c1ccc2c(c1)NC(=O)CO2` (configuration not stated), > 200 µM (inactive); to `Cc1cc(C)n(-c2ccc(Cl)c(C(=O)Nc3cc(C(F)(F)F)ccc3Cl)n2)n1`, > 200 µM (inactive). Take `Cc1ccc(C(=O)COc2ccccc2C(=O)Nc2ccccc2)cc1`: the IC50 is > 200 µM (inactive). To `CCOc1cc(/C=C(\C#N)C(=O)Nc2ccccc2C(=O)O)ccc1OC(=O)c1ccc(C)cc1` belongs > 200 µM (inactive); to `Nc1c(C(=O)NCc2ccco2)c2nc3ccccc3nc2n1Cc1ccccc1`, > 200 µM (inactive); to `O=C(CC1Nc2cccc3cccc(c23)NC1=O)Nc1ccccc1` (configuration not stated), > 200 µM (inactive). Regarding `CSc1n[nH]c(NCc2ccc(Cl)cc2)n1`, the IC50 was > 200 µM (inactive). As for `Cc1coc2c(C)c3oc(=O)c(CCC(=O)N[C@@H](C)C(=O)N[C@@H](Cc4ccccc4)C(=O)O)c(C)c3cc12`, the IC50 is 16.8 µM. As to `COCCCn1c(N)c(C(=O)NCc2ccco2)c2nc3ccccc3nc21`, the IC50 is > 200 µM (inactive). The value for `COc1ccc(-c2cnnn2-c2ccc(N)cc2)cc1OC` was > 200 µM (inactive).

In the case of `C[N+]1(CCNC(=O)/C=N/O)CCCCC1`, the IC50 is > 200 µM (inactive). For `Cc1ccn2c(C(=O)CSc3ccc(Cl)cc3Cl)c(C)nc2c1`, the IC50 was > 200 µM (inactive).

`CCc1nnc(NS(=O)(=O)c2ccc(NC(=S)NC(=O)/C=C/c3ccc(C(C)C)cc3)cc2)s1`: the IC50 is 19.2 µM. The value for `Nc1ccc(O)c2c1C(=O)c1ccccc1C2=O` was 1.52 µM; that for `O=C(Nc1ccc(S(=O)(=O)N2CCOCC2)cc1)c1ccc(=O)[nH]c1` was 20.5 µM.

Take `COc1cc(CNc2ccc(O)cc2)cc(Br)c1OCc1ccccc1F`: the IC50 result was “inactive”.

On to `COCCCNc1c2c3c(cccc3[nH]c1=O)C(=O)c1ccccc1-2`, for which the IC50 is > 200 µM (inactive). With `Cc1ccc(-n2cccn2)c([C@@H]2C[C@H]3CN(C)C(=O)[C@]34CCCN24)c1`, the IC50 is > 200 µM (inactive). To `O=c1[nH]c2ccc(S(=O)(=O)N3CCCCC3)cc2s1` belongs > 200 µM (inactive). As to `COc1cccc(CCC(=O)N(C)C2CCCN(Cc3ccccc3F)C2)c1` (configuration not stated), the IC50 is > 200 µM (inactive).

Turning to `COC(=O)c1c(C(=O)OC)c2cccc3cc(-c4ccccc4)c4ccc1c4n32`, the IC50 result was “inactive”. To `CC1CCN(S(=O)(=O)c2ccc3c(c2)c(=O)c(C(=O)NCc2ccccc2Cl)cn3C)CC1` belongs > 200 µM (inactive). For `O=C(O)c1cc(Cl)c(Cl)cc1C(=O)Nc1cccc2cccnc12`, the IC50 is > 200 µM (inactive). For `CCC(C)[C@H](NC(=O)N1CCn2c1nc1ccccc12)C(=O)NCCc1ccc(OC)c(OC)c1` (some centres not stated), the IC50 is > 200 µM (inactive). To `COc1ccc(CCNC(=O)c2ccc(S(=O)(=O)N(C)c3ccccc3)cc2)cc1OC` belongs > 200 µM (inactive); to `CN1C(=O)NC(c2ccccc2[N+](=O)[O-])C2=C1CCCC2=O` (configuration not stated), 10.3 µM; to `COc1cccc2cc(C(=O)N3CCc4ccccc43)c(=O)oc12`, > 200 µM (inactive). The value for `Cc1ccc(S(=O)(=O)N2CCC(=O)N(C(COCc3cccc(C)c3)Cc3ccccc3)CC2)cc1` (configuration not stated) was > 200 µM (inactive); that for `O=c1[nH]n(-c2ccc([N+](=O)[O-])cc2)c(=O)c2ccccc12` was 15.7 µM. To `C=C(C)Cn1c(N2CCN(CC)CC2)nc2c1c(=O)[nH]c(=O)n2C` belongs > 200 µM (inactive); to `CCN(CC)c1ccc(C=N/C(C#N)=C(\N)C#N)cc1`, > 200 µM (inactive); to `O=C(Nc1ccc(Br)cc1)c1ccc(N2C(=O)C3CC=CCC3C2=O)cc1` (configuration not stated), 18.6 µM. For `Oc1ccc(N=Cc2ccc(OCc3ccccc3)cc2)cc1`, the IC50 result is “inactive”. To `COC(=O)c1cc(NC(=O)c2ccccc2)c(=O)oc1/C=C/Nc1ccc(Oc2ccccc2)cc1` belongs > 200 µM (inactive); to `Cc1ccc(CNc2ccc(O)cc2)cc1`, “inactive”; to `O=C(O)CCN1C(=O)/C(=C/c2cn(-c3ccccc3)nc2-c2cccs2)SC1=S`, > 200 µM (inactive). The value for `O=C(Nc1ccc(Cl)cc1)c1ccc(S(=O)(=O)N2CCOCC2)cc1` was > 200 µM (inactive). To `CCCCn1c(NC(=O)c2ccc(Br)o2)c(C(=O)OCC)c2nc3ccccc3nc21` belongs > 200 µM (inactive). Regarding `O=S(=O)(Nc1cc2nc3ccccc3nc2n1Cc1ccccc1)c1ccc(Cl)cc1`, the IC50 is > 200 µM (inactive). To `CCN(CC)CCOC(=O)c1ccc(N/C=C(/C#N)c2nc(-c3ccc(OC)c(OC)c3)cs2)cc1` belongs 12.5 µM; to `CCCCNc1nnc(Cc2ccc(Cl)cc2)c(=O)[nH]1`, > 200 µM (inactive); to `CN(C)c1cccc2c(C=C(C#N)C#N)ccc(N(C)C)c12`, > 200 µM (inactive). As for `O=C1CCCC(O)=C1N=Nc1ccc(C(=O)O)cc1`, the IC50 was > 200 µM (inactive). With `O=c1ccc2c(-c3ccccc3)c3ccc(O)cc3oc-2c1`, the IC50 was 11.1 µM.

Consider `O=C(Nc1ccccc1N1CCCCC1)c1ccc(-c2cccc(Cl)c2)o1`, for which the IC50 was > 200 µM (inactive). To `O=C(Nc1nc(-c2cc3ccccc3oc2=O)cs1)c1ccco1` belongs > 200 µM (inactive); to `CSc1ccccc1C(=O)NC(C)c1ccc(-n2ccnc2)cc1` (configuration not stated), > 200 µM (inactive); to `CC1=CC(C)(C)N2C(=O)C(=Nc3ccc(O)cc3)c3cccc1c32`, “inactive”.

On to `CC1=C(C#N)c2nc(N)c(C#N)c(C)c2/C1=C\c1ccc(-c2ccccc2C(=O)O)o1`, for which the IC50 is 20.6 µM. Regarding `CCCCN(Cc1cc2cc(OC)ccc2[nH]c1=O)S(=O)(=O)c1ccc(C)cc1`, the IC50 is > 200 µM (inactive). The value for `N#Cc1c(NC(=O)c2ccc(Br)o2)n(-c2ccccc2)c2nc3ccccc3nc12` was > 200 µM (inactive). With `CC(C)(C)c1cc(-c2csc(Nc3ccccc3)[n+]2Cc2ccc(C(=O)O)cc2)cc(C(C)(C)C)c1O`, the IC50 was > 200 µM (inactive). To `COc1ccc(CCNC(=O)CCC(=O)N2CCOc3ccc(C)cc32)cc1OC` belongs > 200 µM (inactive).

Consider `COCCOC(=O)c1sc(=S)n(CCOC)c1N`, for which the IC50 is 8.07 µM. To `CC(=O)Nc1ccc(N=Cc2c(O)c(C(=O)Nc3ccccc3)cc3ccccc23)cc1` belongs 24.9 µM. The value for `Nc1c(C(=O)NCc2ccco2)c2nc3ccccc3nc2n1CCc1ccccc1` was > 200 µM (inactive). The value for `O=C(NCc1c(F)cccc1F)c1cc(COc2c(F)cccc2F)on1` was > 200 µM (inactive); that for `O=C(CCn1ccc2ccccc21)NC1CCCc2ccccc21` (configuration not stated) was > 200 µM (inactive).

For the compound `CC(C)(C)c1ccc(C(CC(=O)O)NC(=O)Cc2ccc(F)cc2)cc1` (configuration not stated), the half-maximal inhibitory concentration (IC50) was 25.6 µM. To `Cc1cc(C)c(C#N)c(Nc2ccccc2C)n1` belongs > 200 µM (inactive). Regarding `CC1CCN(S(=O)(=O)c2nnc(NC(=O)c3cccc(Cl)c3)s2)CC1`, the IC50 is > 200 µM (inactive). To `COCCn1nnnc1C(c1cc2ccc(OC)cc2[nH]c1=O)N1CCc2ccccc2C1` (configuration not stated) belongs > 200 µM (inactive); to `O=c1[nH]c(-c2ccc(F)cc2)nc2c1sc(=S)n2-c1ccccc1`, 19.6 µM; to `C[C@]12CCC3C(CC=C4C[C@@H](O)CC[C@@]43C)C1CCC2[C@]1(C)CCC(=O)O1` (some centres not stated), > 200 µM (inactive). To `CC(=O)c1ccc(NC(=O)CC2Nc3cccc4cccc(c34)NC2=O)cc1` (configuration not stated) belongs > 200 µM (inactive); to `CCNc1ccc(C(=O)O)cc1N`, “inactive”; to `S=c1[nH]nc(Cc2cccc3ccccc23)n1-c1ccccc1`, > 200 µM (inactive).

Consider `O=S(=O)(Nc1c(S(=O)(=O)c2ccccc2)c2nc3ccccc3nc2n1C1CCCCC1)c1ccccc1`, for which the IC50 is > 200 µM (inactive). To `O=C(NCc1ccc(Cl)cc1)c1cc(-c2cccs2)on1` belongs 8.13 µM.

`O=S(=O)(O)c1cc(O)c2c(O)c(N=Nc3cc(Cl)ccc3O)c(S(=O)(=O)O)cc2c1`: the IC50 is 5.13 µM. To `COc1cc(CC(=O)NCc2ccc3c(c2)OCO3)cc(OC)c1OC` belongs > 200 µM (inactive); to `Oc1c(Br)cc(Br)cc1CNc1ccc(F)cc1`, > 200 µM (inactive). To `CCOC(=O)c1c(C)[nH]c2c1-c1ccccc1C(=O)C2=O` belongs > 200 µM (inactive); to `CCOc1ccccc1CNc1ccc(O)cc1`, “inactive”. The value for `O=C(O)c1cc(O)c2c(c1)C(=O)c1cccc(O)c1C2=O` was “inactive”. With `O=C(CSc1ccc(Br)c2cccc(Cl)c12)Nc1ccc(S(=O)(=O)Nc2nccs2)cc1`, the IC50 was > 200 µM (inactive). Regarding `COC(=O)c1ccc2c(c1)C(C)(C)C(/C=C/c1ccccc1O)=[N+]2C`, the IC50 was > 200 µM (inactive).
